The results in this text go back to US9481659B2, “Selective heterocyclic sphingosine 1 phosphate receptor modulators” (Celgene International II SÀRL, priority 2011, dated 2016).

Molecules are shown by their SMILES. Structures can show the parent of a compound that is named as a salt. A value given as a limit tells only on which side of the number the result lay.

S1P1/EDG1, sequence (P21453 whole entry): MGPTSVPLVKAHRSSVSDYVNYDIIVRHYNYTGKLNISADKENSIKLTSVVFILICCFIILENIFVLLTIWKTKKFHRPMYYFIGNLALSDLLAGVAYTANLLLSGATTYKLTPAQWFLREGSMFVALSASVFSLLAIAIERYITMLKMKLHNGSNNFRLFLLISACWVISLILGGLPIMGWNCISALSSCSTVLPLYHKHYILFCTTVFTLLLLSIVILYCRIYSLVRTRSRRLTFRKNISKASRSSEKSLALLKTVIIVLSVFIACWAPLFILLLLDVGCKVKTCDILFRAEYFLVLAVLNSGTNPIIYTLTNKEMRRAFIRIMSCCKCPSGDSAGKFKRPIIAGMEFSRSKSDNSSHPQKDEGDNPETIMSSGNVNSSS

This assay has as its target S1P1/EDG1 (Homo sapiens, UniProt P21453). The assay can be described thus: S1P1 CRE-bla CHOK1 reporter assay, inhibition of Forskolin induced cAMP. The class given is cell-based. As to conditions: agonist activity range; S1P1 CRE-bla CHOK1 cells, 2 μM Forskolin; read-out: S1P1 ACTIVITY
Summed up: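 CRE-bla CHO K1 cells stably expressing human S1P1 were treated 4 hrs at 37° C with 10-point compound dilutions plus 2 μM Forskolin. Inhibition of cAMP-driven β-lactamase reporter was read with a FRET substrate loaded 2 hrs at room temperature.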
Regarding `CC(C)Oc1ccc(-c2ncc(-c3cccc4c3CCC[C@H]4N)s2)cc1C#N` [Compound 230, (R)-5-(5-(5-amino-5,6,7,8-tetrahydronaphthalen-1-yl)thiazol-2-yl)-2-isopropoxybenzonitrile hydrochloride], the EC50 was in the range of 0.5 to 5 nM.

With `CC(=O)N[C@@H]1CCCc2c(-c3nnc(-c4ccc(OC(C)C)c(C#N)c4)s3)cccc21` [Compound 231, (R)—N-(5-(5-(3-cyano-4-isopropoxyphenyl)-1,3,4-thiadiazol-2-yl)-1,2,3,4-tetrahydronaphthalen-1-yl) acetamide], the EC50 is 0.05 to 0.5 nM.

Turning to `CC(=O)N[C@H]1CCCc2c(-c3nnc(-c4ccc(OC(C)C)c(C#N)c4)s3)cccc21` [Compound 232, (S)—N-(5-(5-(3-cyano-4-isopropoxyphenyl)-1,3,4-thiadiazol-2-yl)-1,2,3,4-tetrahydronaphthalen-1-yl)acetamide], the EC50 lay within 0.5 to 5 nM.

Turning to `CC(C)Oc1ccc(-c2nnc(-c3cccc4c3CCC[C@H]4NC(=O)c3ccncc3)s2)cc1C#N` [Compound 233], the EC50 was in the range of 0.5 to 5 nM.

`CC(C)Oc1ccc(-c2nnc(-c3cccc4c3CCC[C@H]4NC(=O)c3cccnc3)s2)cc1C#N` [Compound 234]: the EC50 was in the range of 0.5 to 5 nM.

Consider `CC(C)Oc1ccc(-c2nnc(-c3cccc4c3CCC[C@H]4NC(=O)c3ccccn3)s2)cc1C#N` [Compound 235], for which the EC50 lay within 0.5 to 5 nM.

`CC(C)Oc1ccc(-c2nnc(-c3cccc4c3CCC[C@H]4NC(=O)CN(C)C)s2)cc1C#N` [Compound 236]: the EC50 was 0.5 to 5 nM.

Take `COCC(=O)N[C@@H]1CCCc2c(-c3nnc(-c4ccc(OC(C)C)c(C#N)c4)s3)cccc21` [Compound 237]: the EC50 fell in the range of 0.05 to 0.5 nM.

For the molecule `CC(C)Oc1ccc(-c2nnc(-c3cccc4c3CCC[C@@H]4NC(=O)CN(C)C)s2)cc1C#N` [Compound 238], the EC50 is 0.5 to 5 nM.

Turning to `COCC(=O)N[C@H]1CCCc2c(-c3nnc(-c4ccc(OC(C)C)c(C#N)c4)s3)cccc21` [Compound 239], the EC50 lay in the range of 0.5 to 5 nM.

With `COC(=O)N[C@H]1CCCc2c(-c3nnc(-c4ccc(OC(C)C)c(C#N)c4)s3)cccc21` [Compound 240], the EC50 lay in the range of 0.05 to 0.5 nM.

With `CC(C)Oc1ccc(-c2nnc(-c3cccc4c3CCC[C@@H]4NC(=O)c3ccncc3)s2)cc1C#N` [Compound 241], the EC50 lay in the range of 0.5 to 5 nM.

Turning to `CC(C)Oc1ccc(-c2nnc(-c3cccc4c3CCC[C@@H]4NC(=O)c3cccnc3)s2)cc1C#N` [Compound 242], the EC50 lay in the range of 0.5 to 5 nM.

For the molecule `CC(C)Oc1ccc(-c2nnc(-c3cccc4c3CCC[C@@H]4NC(=O)c3ccccn3)s2)cc1C#N` [Compound 243], the EC50 is more than 5 nM.

Take `COC(=O)N[C@@H]1CCCc2c(-c3nnc(-c4ccc(OC(C)C)c(C#N)c4)s3)cccc21` [Compound 244]: the EC50 was 0.5 to 5 nM.

For the molecule `CC(C)Oc1ccc(-c2nnc(-c3cccc4c3CCC[C@H]4NC(=O)CO)s2)cc1C#N` [Compound 245, (R)—N-(5-(5-(3-cyano-4-isopropoxyphenyl)-1,3,4-thiadiazol-2-yl)-1,2,3,4-tetrahydronaphthalen-1-yl)-2-hydroxyacetamide], the EC50 fell in the range of 0.05 to 0.5 nM.

With `CC(C)Oc1ccc(-c2nnc(-c3cccc4c3CCC[C@@H]4NC(=O)CO)s2)cc1C#N` [Compound 246, (S)—N-(5-(5-(3-cyano-4-isopropoxyphenyl)-1,3,4-thiadiazol-2-yl)-1,2,3,4-tetrahydronaphthalen-1-yl)-2-hydroxyacetamide], the EC50 was 0.05 to 0.5 nM.

Regarding `CC(C)Oc1ccc(-c2nnc(-c3cccc4c3CCC[C@H]4NC(=O)[C@H](N)CO)s2)cc1C#N` [Compound 247], the EC50 was 0.5 to 5 nM.

For `CC(C)Oc1ccc(-c2nnc(-c3cccc4c3CCC[C@H]4NC(=O)[C@@H](N)CO)s2)cc1C#N` [Compound 248], the EC50 was 0.05 to 0.5 nM.

As for `CC(C)Oc1ccc(-c2nnc(-c3cccc4c3CCC[C@H]4NC(=O)CCN)s2)cc1C#N` [Compound 249], the EC50 was in the range of 0.5 to 5 nM.

Take `CC(C)Oc1ccc(-c2nnc(-c3cccc4c3CCC[C@H]4NC(=O)CN)s2)cc1C#N` [Compound 250]: the EC50 was 0.5 to 5 nM.
